Results published in patent publication US12318357B2, “Small molecule drugs and related methods for treatment of diseases related to TDP-43, alpha-synuclein, huntingtin's protein and tau protein oligomer formation” (ACELOT, INC., priority 2019, dated 2025).
Entries after “also recorded” stand apart in the source; their conditions may differ. Read-outs that look alike come from different tables or passages of the source.

Experiments:
[1] = system: TDP43 granules in U2OS cells stably expressing tGFP tagged human TDP-43; test: TDP43 granule formation inhibition in TDP43-tGFP-U2OS cells after sodium arsenite treatment; assay type: cell-based; conditions: for TDP43 granule formation inhibition in cells after arsenite treatment (overall result): 24 h pre-incubation, 1-10 μM, 250 μM sodium arsenite 120 min
Excerpt: Amyotrophic lateral sclerosis (ALS) is one of the most common degenerative diseases of the motor neuron system. TDP-43 related pathologies seem to be a dominant type of pathologies across sporadic ALS types. A novel fluorescence cell-based assay for High Content Screening that allows the quantification of pathological TDP43 granules has been developed. In this work we have used this model to screen the effects of three compounds, using Riluzole as a positive control. The TDP-43 U2OS cell line contains U2OS cells stably expressing the tGFP tagged human TDP-43. This cell line has been designed to test compounds and to analyse their capability to modulate TDP43 granule formation after cytotoxic stress induction. The cell line was generated in Innoprot. It is a stable cell line that express the LacRI repressor protein and the TDP43-turboGFP protein. The cell line was generated using the pCMVLacRI-Hygro plasmid (Hygromycin resistance) and the pPuro-TDP43tGFP plasmid (that confers the puromycin resistance). The cell line was generated transfecting these plasmids with Lipofectamine LTX reagent, and the transfected cells were diluted until critical dilution. The negative control show a diffuse nuclear distribution of the fluorescence, but after sodium arsenite treatment the phenotype turns into a cytosolic vesicular pattern corresponding to stress granules and into an intensive nuclear granules pattern. The aim of this work was to assess different doses of 11 compounds.
The objective of these experiments was to screen the protective effect of 11 compounds and reference compound (arimoclomol) against cellular oxidative stress induced by sodium arsenite (i.e., arsenite). The compounds have been tested at 10 μM, […], 2 μM and 1 μM each, and appropriate controls (vehicle, arsenite and controls) have been included as well. The compound tested were the following: 101, 102, 103, 104, 105, 106, 107, 201, 202, 203 and 204.
Each compound was prepared in Optimem. In the final dilution, DMSO was added in order to obtain a final DMSO concentration of 0.1$, the same that the reference compound (arimoclomol). All compounds were tested at 0.1% DMSO (vehicle) final concentration.
Day 1 (Thursday). Recombinant TDP43-tGFP-U2OS cell line was thawed (2×10^6 cells per T75). Day 2 (Friday). After 24 hours, Cells were maintained in DMEM-F12 supplemented with 10% FBS at 37° C. in a humidified 5% CO2 atmosphere. Day 5 (Monday). Cells were plated in coated 96-well plates with a number of 10.000 cells (+/−2000 cells) per well. Cells were maintained in DMEM-F12 medium supplemented with 10% FBS for 24 h at 37° C. in a humidified 5% CO2 atmosphere. Day 6 (Tuesday). Cells were incubated with test compounds and IPTG 1 mM in triplicate assays during 24 hours. Day 7 (Wednesday). Culture medium was replaced, and cells were treated with 250 μM of sodium arsenite during 120 min and TDP-43 globs formation was quantified in both cell cytoplasm and cell nucleus. The TDP43 granules formation was quantified after the formaldehyde fixation (3.7 wt. %, 20 minutes) of the cells. The nuclei were stained using DAPI (2 μg/ml) and the fluorescence was measured using a Cell Insight High-Content Bioimager from Thermofisher. To detect the DAPI, the filters used were 380/10 and 460/10 nm for excitation and emission, respectively and to detect the TDP43 granules, the filters were 488/20 and 520/20 nm, respectively. The images were obtained with an objective of 20×, taking 9 pictures of each well. Cell quantification was performed delimitating the region of interest of the nuclei (stained with DAPI) and after quantification, the average of each triplicate was performed. Granule quantification was also performed using the Thermofisher Cellomics Scan Viewer 6.1.1. Spot detector application from Cell Software delimitated 2 regions of interest, the nuclei and cytosol. This software application quantified the number of granules per nuclei and the average granule number per cytosol of each well was calculated. […]

[2] = biological target: T1, TDP-43307-319 WT peptide (Homo sapiens, UniProt Q13148); test: IM-MS monitoring of oligomerization of TDP-43307-319 (recovery study on aggregated peptide); assay type: biochemical; conditions: for oligomer distribution initially after addition of inhibitor to aggregated WT peptide: initial time point; for remodeling of developed higher-order oligomers and prevention of re-formation (overall): recovery study on aggregated peptide; for rate of redistribution relative to the other inhibitors: recovery study, comparison among molecules; for oligomer distribution a week after single treatment: one week
T1 construct: TDP-43307-319 WT peptide 307 [MGGGMNF GAFSIN]319; made in house; host or cells: chemical synthesis (Fmoc solid phase peptide synthesis), not recombinant
Procedure: Peptide Synthesis and Purification. TDP-43307-319 WT peptide 307 [MGGGMNF GAFSIN]319 was synthesized using standard 9-fluorenylmethoxycarbonyl (Fmoc) chemistry using 2-(1H-benzotriazol-1-yl)-1,1,3,3-tetramethyluronium hexafluorophosphate/hydroxy-benzotriazole (HBTU/HOBT) manual solid phase peptide synthesis. The peptide was amidated with an Fmoc-Rink Amide resin (Anaspec). The peptide was cleaved from the resin using 94% TFA, 5% triisopropylsilane, and 1% phenol for 2 h at 295 K. The crude peptide was purified by reverse phase high performance liquid chromatography (RP-HPLC) on a semipreparative C18 column (Phenomenex) using gradients of water [0.1% (v/v) TFA] and acetonitrile [0.1% (v/v) TFA]. The peptide was dissolved in 6 M guanidine hydrochloride (GdnHCl) prior to injection due to its insolubility in water and acetonitrile. The peptide purity was >93% as determined by analytical RP-HPLC. The molecular mass of the peptide was verified by ESI mass spectrometry.
IM-MS was utilized to monitor the oligomerization of TDP-43307-319 in the presence of molecules AC0107, AC0105, AC0102 and AC0201. The ability of IMMS to separate species of a specific [m]z+ (m=mass, z=charge) that contains different [n]z+ (n=oligomer number) by measuring the arrival time distributions (ATDs) yields oligomeric distributions. Samples were prepared as mentioned previously and incubated at room temperature under quiescent conditions.
The TDP-43307-319 WT peptide was dissolved in 10 mM ammonium acetate (pH 7.4) with 2% HFIP to a final peptide concentration of 100 μM. The sample was incubated at room temperature under quiescent conditions for 4 h to develop higher-order oligomers. Two dominant mass/charge (m/z) peaks were always present in the mass spectra corresponding to [n]Z+=[1]1+ and [1]2+. […] After incubation at room temperature for 4 h, the distribution shifted toward the higher-order oligomers. […] Once the presence of higher-order oligomers was confirmed, an inhibitor (either [AC0107], [AC0105], [AC0102], [AC0201] or [AC0202]) was added in a 1:1 peptide (100 μM): inhibitor (100 μM) molar ratio. Subsequent time points were taken to monitor the remodeling properties of the inhibitors.

[3] = biological target: T1, TDP-43307-319 WT peptide; test: as above; assay type: biochemical; conditions: 100 μM peptide
[4] = Homo sapiens, U2OS, normalized to sodium arsenite and vehicle, read-out: maximum stress granule inhibition in cytosol
[5] = 1:1 peptide (100 μM): inhibitor (100 μM), added after 4 h aggregation

| Structure (SMILES) | TDP43 granule formation inhibition in cells after arsenite treatment (overall result) [1] | inhibition at 10 µM [1, 4] [%] | oligomer distribution initially after addition of inhibitor to aggregated WT peptide ([2]; 1:1, 100 μM each) | remodeling of developed higher-order oligomers and prevention of re-formation (overall) [2] | other results |
| --- | --- | --- | --- | --- | --- |
| CC(=O)Nc1ccc(CNCCc2cccc(Cl)c2)cc1 [AC0101, N-[4-({[2-(3-chlorophenyl)ethyl]amino}methyl)phenyl]acetamide] | positive | 44 |  |  | inhibition at 5 µM ([1]; Homo sapiens, U2OS, at 5 μM, normalized to sodium arsenite and vehicle, read-out: maximum stress granule inhibition in nucleus): 62.5% |
| CN(C)Cc1ccc(CNCc2ccc3c(c2)OCCO3)cc1 [AC0102, (2,3-dihydro-1,4-benzodioxin-6-ylmethyl)({4 [(dimethylamino)-methyl]phenyl}methyl)amine] | positive | 36.9 | shift toward higher-order oligomers | able to remodel the developed higher-order oligomers and prevent the re-formation of these toxically related species | inhibition at 10 µM ([1]; Homo sapiens, U2OS, normalized to sodium arsenite and vehicle, read-out: maximum stress granule inhibition in nucleus): 27.7%; oligomer distribution after 1 h ([2]; 1:1, 100 μM each, 1 h after addition): remnants of higher-order oligomers are present; oligomer distribution at later time points ([2]; 1:1, 100 μM each, later time points): composed primarily of monomer and dimer; rate of redistribution relative to the other inhibitors [2]: slower rate |
| CN(C)C(=O)C(c1ccccc1)N1CCN(c2ccc(O)cc2)CC1 (stereo not shown) [AC0103, 2-[4-(4-hydroxyphenyl)piperazin-1-yl]-N,N-dimethyl-2 phenylacetamide] | positive | 47.2 |  |  |  |
| N#Cc1cccc(CNCc2ccc(CN3CCOCC3)cc2)c1 [AC0104, 3-[({[4-(morpholin-4 ylmethyl)phenyl]methyl}amino)methyl]benzonitrile] | mildly active |  |  |  |  |
| N#Cc1ccc(CNCc2ccc(CN3CCCC3)cc2)cc1 [AC0105, 4-[({[4-(pyrrolidin-1 ylmethyl)phenyl]methyl}amino)methyl]benzonitrile] | mildly active |  | immediate dissociation of higher-order oligomers into monomer and dimer | able to remodel the developed higher-order oligomers and prevent the re-formation of these toxically related species | oligomer distribution a week after single treatment ([2]; 1:1, 100 μM each): maintained for a week |
| N#Cc1ccc(CNCc2cccc(CN3CCCC3)c2)cc1 [AC0107, 4-[({[3-(pyrrolidin-1-ylmethyl)phenyl]methyl}amino)methyl]benzonitrile] |  |  | initial increase in the number of higher-order oligomers | able to remodel the developed higher-order oligomers and prevent the re-formation of these toxically related species | time by which redistribution to mostly monomer and dimer is seen ([2]; 1:1, 100 μM each): ≥ 3 h; complexation between WT peptide and molecule in mass spectra [2, 5]: no complexation; level of aggregation (signal-to-noise ratio, baseline, [1]1+ peak) after addition of inhibitor [2, 5]: level of aggregation was reduced |
| CC(C)C(NCc1ccccc1)c1cccc(C=O)c1 (stereo not shown) [AC0201, 3-[1-(benzylamino)-2-methylpropyl]benzaldehyde] |  |  | immediately pushed the bulk of the distribution back to monomer, dimer, and trimer | successfully redistributed the oligomers to monomer and was able to prevent the re-formation of higher-order oligomers | oligomer distribution at 3-24 h ([2]; 1:1, 100 μM each, 3-24 h after addition): dominated by monomer and dimer; oligomer distribution a week after single treatment ([2]; 1:1, 100 μM each): dominate monomer peak was observed; rate of redistribution relative to the other inhibitors [2]: fastest and most efficient redistribution; redistribution of oligomers at 10:1 peptide:inhibitor molar ratio ([3]; 10 μM inhibitor): takes a longer time to dissociate oligomers to mostly monomer; also recorded: very effective inhibitor; also recorded: effective; redistribution of oligomers at 4:1 peptide:inhibitor molar ratio ([3]; 25 μM inhibitor): effective at redistributing and maintaining the population of lower-order oligomers; redistribution of oligomers at 2:1 peptide:inhibitor molar ratio ([3]; 50 μM inhibitor): effective at redistributing and maintaining the population of lower-order oligomers |
